Here are results for 62 molecules from ChEMBL document CHEMBL4651402, “Screening of ~5500 FDA-approved drugs and clinical candidates for anti-SARS-CoV-2 activity” (2021).

The test system of this test is SARS-CoV-2. Description: microbe, parasite or virus in culture. The conditions noted are these: Severe acute respiratory syndrome coronavirus 2, Vero C1008, 48 h; for IC50: read-out: pIC50 (converted).

pIC50: −log10 of the molar value.

Take `CC(C)CC(=O)N[C@H](C(=O)N[C@H](C(=O)N[C@@H](CC(C)C)[C@@H](O)CC(=O)N[C@@H](C)C(=O)N[C@@H](CC(C)C)[C@@H](O)CC(=O)O)C(C)C)C(C)C` [PEPSTATIN]: the negative-log IC50 (pIC50) (in general, the negative decadic logarithm of the IC50, by convention in mol/L) was < 4.70 and the IC50 is > 20 µM.
The like results for `N[C@@H](Cc1ccccc1)C(=O)O` [PHENYLALANINE] were, in that order, < 4.70 and > 20 µM.
In the case of `N#Cc1cccc([C@H]2C=C(C(F)(F)F)NC3=C2C(=O)CCC3)c1`, the negative-log IC50 (pIC50) is < 4.70 and the IC50 is > 20 µM.
With `CC(C)(C)C(=O)OCOC(=O)[C@@H]1N2C(=O)[C@@H](/N=C/N3CCCCCC3)[C@H]2SC1(C)C` [AMDINOCILLIN PIVOXIL], the pIC50 was < 4.70 and the IC50 is > 20 µM.
Consider `CC1=NN(c2ccccc2)C(=O)C1` [EDARAVONE], for which the pIC50 is < 4.70 and the IC50 is > 20 µM.
The like results for `CC12CCC3C(CCC4CC(=O)CCC43C)C1CCC2=O` (centres undefined) were, in that order, < 4.70 and > 20 µM.
The like results for `CCCCN(CCCC)CCCOC(=O)c1ccc(N)cc1` [BUTACAINE] were, in that order, < 4.70 and > 20 µM.
For `CC(C)(C(=O)c1cccnc1)c1cccnc1` [METYRAPONE], the pIC50 is < 4.70 and the IC50 is > 20 µM.
Turning to `COCC1=C(C(=O)OC(C)OC(=O)OC(C)C)N2C(=O)[C@@H](NC(=O)/C(=N\OC)c3csc(N)n3)[C@H]2SC1` (some centres undefined) [CEFPODOXIME PROXETIL], the pIC50 was < 4.70 and the IC50 was > 20 µM.
In the case of `CC(C)N(CCC(c1ccccc1)c1ccccc1)C(C)C` [DIISOPROMINE], the pIC50 is < 4.70 and the IC50 was > 20 µM.
For `CCOC(=O)Nc1ccc(SCC2CO[C@](Cn3ccnc3)(c3ccc(Cl)cc3Cl)O2)cc1` (some centres undefined), the pIC50 is < 4.70 and the IC50 was > 20 µM.
As to `O=S(=O)(O)CCS` [2-MERCAPTOETHANESULFONIC ACID], the negative logarithm of the IC50 (pIC50) is < 4.70 and the IC50 was > 20 µM.
In the case of `CCOC(=O)N(Cc1ccccc1)C1CC1` [ENCYPRATE], the negative logarithm of the IC50 (pIC50) is < 4.70 and the IC50 was > 20 µM.
As to `N=C(N)Nc1ccc(C(=O)Oc2ccc3cc(C(=N)N)ccc3c2)cc1` [NAFAMOSTAT], the negative-log IC50 (pIC50) is < 4.70 and the IC50 is > 20 µM.
Consider `N[C@H](Cc1c[nH]cn1)C(=O)O` [D-HISTIDINE], for which the pIC50 is < 4.70 and the IC50 was > 20 µM.
The like results for `CCC[C@H](NC(=O)[C@@H]1[C@H]2CCC[C@H]2CN1C(=O)[C@@H](NC(=O)[C@@H](NC(=O)c1cnccn1)C1CCCCC1)C(C)(C)C)C(=O)C(=O)NC1CC1` were, in that order, < 4.70 and > 20 µM.
Regarding `CN1C(=O)CC(c2ccccc2)C1=O` (centres undefined) [PHENSUXIMIDE], the negative logarithm of the IC50 (pIC50) is < 4.70 and the IC50 was > 20 µM.
The like results for `O=[N+]([O-])OC1COC2C(O[N+](=O)[O-])COC12` (centres undefined) were, in that order, < 4.70 and > 20 µM.
As to `NC1=NC(=O)C(c2ccccc2)O1` (centres undefined) [PEMOLINE], the pIC50 was < 4.70 and the IC50 was > 20 µM.
`OCc1ccccn1` [PICONOL]: the pIC50 is < 4.70 and the IC50 is > 20 µM.
The like results for `Nc1ncnc2c1ncn2C1CC(O)C(CO)O1` (centres undefined) were, in that order, < 4.70 and > 20 µM.
In the case of `N=C(N)NCC1COc2ccccc2O1` (centres undefined) [GUANOXAN], the negative-log IC50 (pIC50) was < 4.70 and the IC50 is > 20 µM.
The like results for `NC[C@@H]1O[C@H](O[C@H]2[C@@H](O)[C@H](O[C@@H]3[C@@H](O)[C@H](N)C[C@H](N)[C@H]3O[C@H]3O[C@H](CO)[C@@H](O)[C@H](O)[C@H]3N)O[C@@H]2CO)[C@H](N)[C@@H](O)[C@@H]1O` [PAROMOMYCIN] were, in that order, < 4.70 and > 20 µM.
The like results for `CC12CCC(=O)C=C1CCC1C2CCC2(C)C1CC[C@H]2O` (some centres undefined) were, in that order, < 4.70 and > 20 µM.
The like results for `COc1cccc(C2(CCCN(C)C)C(=O)NC(=O)CC2(C)C)c1` (centres undefined) were, in that order, < 4.70 and > 20 µM.
In the case of `CC(C)c1cc(C(=O)N2Cc3ccc(CN4CCN(C)CC4)cc3C2)c(O)cc1O` [ONALESPIB], the pIC50 was < 4.70 and the IC50 is > 20 µM.
Consider `Cc1c(-c2ccnn2C)cc(C(=O)NCc2ccc(S(C)(=O)=O)cn2)c(=O)n1-c1cccc(C(F)(F)F)c1`, for which the pIC50 was < 4.70 and the IC50 is > 20 µM.
`CC1C2Cc3ccc(O)cc3C1(C)CCN2CCc1ccccc1` (centres undefined) [PHENAZOCINE]: the negative logarithm of the IC50 (pIC50) was < 4.70 and the IC50 was > 20 µM.
On to `O=c1c(O)c(-c2ccc(O)cc2O)oc2cc(O)cc(O)c12` [MORIN], for which the negative-log IC50 (pIC50) was < 4.70 and the IC50 was > 20 µM.
`C[C@@H]1C(=O)NC2=Nc3cccc(Cl)c3CN21` [QUAZINONE]: the negative logarithm of the IC50 (pIC50) is < 4.70 and the IC50 was > 20 µM.
As for `C[C@@H](OC[C@@]1(c2ccccc2)CC[C@]2(CCC(=O)N2)CN1)c1cc(C(F)(F)F)cc(C(F)(F)F)c1` [ROLAPITANT], the pIC50 was < 4.70 and the IC50 was > 20 µM.
The like results for `Cc1cnc2c(c1)CCCC2C(N)=S` (centres undefined) [TIQUINAMIDE] were, in that order, < 4.70 and > 20 µM.
In the case of `O=C(Cc1cccc(OC(F)(F)F)c1)Nc1ccc(CCCCc2nnc(NC(=O)Cc3ccccn3)s2)nn1`, the pIC50 was < 4.70 and the IC50 is > 20 µM.
Take `O=C(CO)CO` [DIHYDROXYACETONE]: the pIC50 was < 4.70 and the IC50 was > 20 µM.
The like results for `Oc1ccc(Cl)cc1` [PARACHLOROPHENOL] were, in that order, < 4.70 and > 20 µM.
On to `Cc1ccc(S(N)(=O)=O)cc1` [P-TOLUENESULFONAMIDE], for which the negative-log IC50 (pIC50) is < 4.70 and the IC50 was > 20 µM.
The like results for `CCOc1nc2cccc(C(=O)O)c2n1Cc1ccc(-c2ccccc2-c2noc(=O)[nH]2)cc1` [AZILSARTAN] were, in that order, < 4.70 and > 20 µM.
Regarding `C=CCOc1ccc(CC(=O)O)cc1Cl` [ALCLOFENAC], the negative-log IC50 (pIC50) is < 4.70 and the IC50 is > 20 µM.
The like results for `CN(N=O)C(=O)N[C@@H](C=O)[C@@H](O)[C@H](O)[C@H](O)CO.CN(N=O)C(=O)N[C@H]1C(O)O[C@H](CO)[C@@H](O)[C@@H]1O` were, in that order, < 4.70 and > 20 µM.
The like results for `O=C(O)[C@@H]1CCCN1` [PROLINE] were, in that order, < 4.70 and > 20 µM.
The like results for `CC(C)(O)c1ccccc1CC[C@@H](SCC1(CC(=O)O)CC1)c1cccc(/C=C/c2ccc3ccc(Cl)cc3n2)c1` [MONTELUKAST] were, in that order, < 4.70 and > 20 µM.
Take `Cn1c(=O)[nH]c2ncn(C)c2c1=O` [PARAXANTHINE]: the negative logarithm of the IC50 (pIC50) is < 4.70 and the IC50 is > 20 µM.
As for `O=C(Nc1ccc(Oc2ccc(Cl)cc2)c(Cl)c1)c1cc(I)cc(I)c1O` [RAFOXANIDE], the pIC50 is < 4.70 and the IC50 is > 20 µM.
`CN1C(CC(O)c2ccccc2)CCCC1CC(O)c1ccccc1` (centres undefined): the pIC50 was < 4.70 and the IC50 was > 20 µM.
The like results for `CS(=O)(=O)OC[C@H](O)[C@@H](O)COS(C)(=O)=O` [TREOSULFAN] were, in that order, < 4.70 and > 20 µM.
In the case of `COc1ccc(CC2c3cc(OC)c(OC)cc3CC[N+]2(C)CCC(=O)OCCCCCOC(=O)CC[N+]2(C)CCc3cc(OC)c(OC)cc3C2Cc2ccc(OC)c(OC)c2)cc1OC` (centres undefined), the pIC50 is < 4.70 and the IC50 was > 20 µM.
The like results for `C[C@H](Oc1ccc2[nH]nc(/C=C/c3cnn(CCO)c3)c2c1)c1c(Cl)cncc1Cl` were, in that order, < 4.70 and > 20 µM.
Turning to `O=C1Nc2ccc(Cl)cc2C(/C=C/C2CC2)(C(F)(F)F)N1` (centres undefined), the negative logarithm of the IC50 (pIC50) is < 4.70 and the IC50 was > 20 µM.
The like results for `CCCCCN(CCCCC)C(=O)C(CCC(=O)O)NC(=O)c1ccc(Cl)c(Cl)c1` (centres undefined) [LORGLUMIDE] were, in that order, < 4.70 and > 20 µM.
The like results for `Cc1c(C)c2c(c(C)c1O)CCC(C)(COc1ccc(CC3SC(=O)NC3=O)cc1)O2` (centres undefined) [TROGLITAZONE] were, in that order, < 4.70 and > 20 µM.
`CN(C)CCC[C@@]1(c2ccc(F)cc2)OCc2cc(C#N)ccc21` [ESCITALOPRAM]: the negative-log IC50 (pIC50) was < 4.70 and the IC50 was > 20 µM.
The like results for `CCCCCOC(=O)Nc1nc(=O)n([C@@H]2O[C@H](C)[C@@H](O)[C@H]2O)cc1F` [CAPECITABINE] were, in that order, < 4.70 and > 20 µM.
The like results for `CCOCCOc1ccccc1C(N)=O` [ETOSALAMIDE] were, in that order, < 4.70 and > 20 µM.
The like results for `CC(C)Cc1sc(-c2nccs2)nc1C(=O)NCc1ccc(F)cc1` were, in that order, < 4.70 and > 20 µM.
Turning to `CC(=O)c1ccc2c(c1)[C@@H]1C=CC[C@@H]1[C@H](c1cc3c(cc1Br)OCO3)N2`, the pIC50 is < 4.70 and the IC50 is > 20 µM.
As to `CC(=O)OCC(=O)[C@@]1(O)CC[C@H]2[C@@H]3CCC4=CC(=O)C=C[C@]4(C)[C@@]3(F)[C@@H](O)C[C@@]21C` [ISOFLUPREDONE ACETATE], the pIC50 is < 4.70 and the IC50 is > 20 µM.
In the case of `COc1cc(C(=O)NCCCCCC(=O)O)cc(OC)c1OC` [CAPOBENIC ACID], the pIC50 is < 4.70 and the IC50 is > 20 µM.
With `CC12CCC(=O)C=C1CCC1C3CC[C@](C)(O)C3(C)CC(O)[C@@]12F` (some centres undefined), the negative logarithm of the IC50 (pIC50) was < 4.70 and the IC50 was > 20 µM.
The like results for `CC1=CCC2C3Cc4ccc(O)c5c4C2(CCN3C)C1O5` (centres undefined) were, in that order, < 4.70 and > 20 µM.
`CC12CCC(O)CC1=CCC1C2CCC2(C)C(O)CCC12` (centres undefined): the pIC50 is < 4.70 and the IC50 was > 20 µM.
As to `Cn1c([N+](=O)[O-])cnc1/C=N/N1CC(CN2CCOCC2)OC1=O` (centres undefined) [MOXNIDAZOLE], the pIC50 is < 4.70 and the IC50 is > 20 µM.
The like results for `CC(=O)SCC(Cc1ccccc1)C(=O)NCC(=O)OCc1ccccc1` (centres undefined) [RACECADOTRIL] were, in that order, < 4.70 and > 20 µM.
